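Dose response: 5 concentrations. Exposure: 48 h. Format: 96-well plates. Endpoint: linear interpolation; highest concentration if not reached. GI50 = concentration required for 50% inhibition of growth.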 Calls of active or inactive are those of the source. No stated cut-off is given here; in the data, active = GI50 up to about 1.1 µM and inactive = higher.
Assays:
Test in all cases: inhibition of tumour cell growth, NCI panel, 48 h
MOLT-4 = test system: MOLT-4
HCC 2998 = test system: HCC 2998
MDA-N = test system: MDA-N
OVCAR-5 = test system: OVCAR-5
SF-268 = test system: SF-268
UACC-62 = test system: UACC-62
RPMI-8226 = test system: RPMI-8226
A498 = test system: A498
SK-MEL-2 = test system: SK-MEL-2
HCT-116 = test system: HCT-116
MDA-MB-435 = test system: MDA-MB-435
SF-539 = test system: SF-539
IGROV-1 = test system: IGROV-1
LOX IMVI = test system: LOX IMVI
KM12 = test system: KM12
UACC-257 = test system: UACC-257
SR = test system: SR
HOP-62 = test system: HOP-62
ACHN = test system: ACHN

Measured: GI50

CC1CNC(NS(=O)(=O)c2cc(C(=O)Nc3ccccc3)c(Cl)cc2S)=NN1 (stereo not given)
inactive: MOLT-4 49.8 µM | HCC 2998 46.1 µM | MDA-N 24.9 µM | OVCAR-5 27.2 µM | SF-268 26.1 µM | UACC-62 43.2 µM | RPMI-8226 31.4 µM | A498 17.7 µM | SK-MEL-2 22.2 µM | HCT-116 30.5 µM | MDA-MB-435 17.7 µM | SF-539 38.4 µM | IGROV-1 6.24 µM | LOX IMVI 21 µM | KM12 33.3 µM | UACC-257 > 100 µM | SR 41.8 µM | HOP-62 43.9 µM | ACHN 69 µM

CCCCn1c2c(n(CCCC)c1=[Se])-c1c(n(CCCC)c(=[Se])n1CCCC)S[Se][Se]S2
inactive: MOLT-4 12.6 µM | HCC 2998 30.4 µM | MDA-N 33.7 µM | OVCAR-5 20.7 µM | SF-268 32.7 µM | UACC-62 17.8 µM | RPMI-8226 16.8 µM | A498 33.5 µM | SK-MEL-2 18 µM | HCT-116 22.8 µM | MDA-MB-435 49.9 µM | SF-539 20.8 µM | IGROV-1 7.1 µM | LOX IMVI 16.5 µM | KM12 27.2 µM | UACC-257 32.8 µM | SR 20.7 µM | HOP-62 13.7 µM | ACHN 12 µM

C=C1C(=O)OC2C3C(=C)[C@@H](OC(C)=O)CC3C(C)=CC(OC(=O)C(C)(O)C(C)OC(C)=O)[C@@H]12 (stereo not given in full)
inactive: MOLT-4 3.04 µM | HCC 2998 16.1 µM | MDA-N 5.82 µM | OVCAR-5 11.9 µM | SF-268 19.5 µM | UACC-62 10.6 µM | RPMI-8226 7.18 µM | A498 16.7 µM | SK-MEL-2 4.98 µM | HCT-116 5.02 µM | MDA-MB-435 8.93 µM | SF-539 13.8 µM | IGROV-1 7.36 µM | LOX IMVI 4.89 µM | KM12 15.2 µM | UACC-257 9.46 µM | SR 7.41 µM | HOP-62 21.3 µM | ACHN 10.4 µM

CC(Oc1ccccc1Cl)C(=O)NN1C(=O)CC(=O)NC1=S (stereo not given)
inactive: MOLT-4 > 100 µM | HCC 2998 > 100 µM | MDA-N > 100 µM | OVCAR-5 > 100 µM | SF-268 > 100 µM | UACC-62 46.1 µM | RPMI-8226 98.9 µM | A498 > 100 µM | SK-MEL-2 93.5 µM | HCT-116 > 100 µM | MDA-MB-435 > 100 µM | SF-539 > 100 µM | IGROV-1 > 100 µM | LOX IMVI 61.9 µM | KM12 83.8 µM | UACC-257 > 100 µM | SR > 100 µM | HOP-62 > 100 µM | ACHN 63.7 µM

CCOC(=O)C(CCN1CCC2(CC1)C(=O)N(C)CN2c1ccccc1)C(=O)OCC
inactive: MOLT-4 > 100 µM | HCC 2998 57.7 µM | MDA-N > 100 µM | OVCAR-5 > 100 µM | SF-268 > 100 µM | UACC-62 > 100 µM | RPMI-8226 > 100 µM | A498 > 100 µM | SK-MEL-2 > 100 µM | HCT-116 > 100 µM | MDA-MB-435 > 100 µM | SF-539 > 100 µM | IGROV-1 > 100 µM | LOX IMVI > 100 µM | KM12 > 100 µM | UACC-257 > 100 µM | SR > 100 µM | HOP-62 > 100 µM | ACHN > 100 µM

CN(C)CCC(=O)[C@@]1(O)CC[C@H]2[C@@H]3CC=C4C[C@@H](O)CC[C@]4(C)[C@H]3CC[C@@]21C
inactive: MOLT-4 13.9 µM | HCC 2998 21.3 µM | MDA-N 17.7 µM | OVCAR-5 > 61.5 µM | SF-268 16.9 µM | UACC-62 16.7 µM | RPMI-8226 1.58 µM | A498 16.1 µM | SK-MEL-2 15.9 µM | HCT-116 18 µM | MDA-MB-435 18.2 µM | SF-539 2.6 µM | IGROV-1 17.8 µM | LOX IMVI 13.7 µM | KM12 15.1 µM | UACC-257 13.3 µM | SR 12.6 µM | HOP-62 14.2 µM | ACHN 16.1 µM

COc1ccc(-c2cc(-c3ccccc3)nc(/N=C\c3ccccc3)n2)c(O)c1
inactive: MOLT-4 4.04 µM | HCC 2998 > 100 µM | MDA-N 5.02 µM | OVCAR-5 > 100 µM | SF-268 > 93.5 µM | UACC-62 > 27.7 µM | RPMI-8226 2.14 µM | A498 > 100 µM | SK-MEL-2 6.52 µM | HCT-116 > 26.6 µM | MDA-MB-435 3.72 µM | SF-539 > 100 µM | IGROV-1 11.5 µM | LOX IMVI 8.05 µM | KM12 5.9 µM | UACC-257 > 100 µM | SR 3.68 µM | HOP-62 > 57.7 µM | ACHN 6.47 µM

CCOP(=O)(OCC)OC1c2[nH]cc(C(=O)OCc3ccccc3)c2-c2cc(C(=O)OC)[nH]c2C1OC (stereo not given)
inactive: MOLT-4 3.58 µM | HCC 2998 6.85 µM | MDA-N 17.5 µM | OVCAR-5 37 µM | SF-268 12.5 µM | UACC-62 7.05 µM | RPMI-8226 5.62 µM | A498 10.6 µM | SK-MEL-2 9.4 µM | HCT-116 6.4 µM | MDA-MB-435 > 60.1 µM | SF-539 8.45 µM | IGROV-1 7.59 µM | LOX IMVI 4.56 µM | KM12 7.96 µM | UACC-257 6.79 µM | SR 7.6 µM | HOP-62 7.76 µM | ACHN 4.66 µM

CCOC(=O)c1cc(C2CCN(c3ccccc3)C2=O)c(C(=O)/C=C(/C)O)[nH]1 (stereo not given)
inactive: MOLT-4 42.7 µM | HCC 2998 > 100 µM | MDA-N 58.6 µM | OVCAR-5 > 100 µM | SF-268 > 100 µM | UACC-62 82 µM | RPMI-8226 48.9 µM | A498 > 100 µM | SK-MEL-2 > 100 µM | HCT-116 65.8 µM | MDA-MB-435 60.8 µM | SF-539 8.38 µM | IGROV-1 > 100 µM | LOX IMVI 58.6 µM | KM12 45.2 µM | UACC-257 89.1 µM | SR 34.1 µM | HOP-62 > 100 µM | ACHN > 100 µM

O=C(/C=C/c1ccc(-c2ccccc2)cc1)NCc1ccc(C(=O)NCCc2ccccc2)cc1
inactive: MOLT-4 96.6 µM | HCC 2998 > 100 µM | MDA-N > 100 µM | OVCAR-5 > 100 µM | SF-268 > 100 µM | UACC-62 > 100 µM | RPMI-8226 > 100 µM | A498 > 100 µM | SK-MEL-2 > 100 µM | HCT-116 34.4 µM | MDA-MB-435 > 100 µM | SF-539 12.3 µM | IGROV-1 > 100 µM | LOX IMVI 41.1 µM | KM12 > 100 µM | UACC-257 > 100 µM | SR 44.8 µM | HOP-62 60.8 µM | ACHN > 100 µM

Source: ChEMBL document CHEMBL1201862, “PubChem BioAssay data set” (2004)
